biological target: TNFα (Homo sapiens, UniProt P01375); assay: TNF induced HEK-Blue assay (NF-kB-driven secreted alkaline phosphatase reporter); assay type: cell-based; conditions: TNFα 0.5 ng/mL, HEK-Blue-CD40L cells, 18 h; read-out: TNF induced HEK-Blue assay IC50 value
Procedure, shortened: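 HEK-Blue-CD40L cells (NF-kB-driven SEAP reporter), 20,000/well, added after 30 min pre-incubation of compound (0.004–25 μM final) with TNFα 0.5 ng/mL final at 37 °C; 18 h incubation. SEAP read with QUANTI-Blue at 620 nm; IC50 from 4-parameter logistic fit, normalized to unstimulated and stimulated DMSO controls.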

Chain of TNFα (P01375 77-233 limits assumed): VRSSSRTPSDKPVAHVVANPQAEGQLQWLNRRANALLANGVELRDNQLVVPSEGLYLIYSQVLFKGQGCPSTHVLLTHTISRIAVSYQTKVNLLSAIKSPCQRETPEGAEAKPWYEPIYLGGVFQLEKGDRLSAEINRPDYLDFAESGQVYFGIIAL

Row | Compound | IC50 [nM]
1 | CCC(Nc1c(Cl)cnc2ccc(-c3cnc(C(C)(C)O)nc3)cc12)c1nc(Br)ccc1F (racemic) [Example 64, 2-(5-(4-((1-(6-bromo-3-fluoropyridin-2-yl)propyl)amino)-3-chloroquinolin-6-yl)pyrimidin-2-yl)propan-2-ol] | < 1000
2 | O=C(O)CC1CN(c2ncc(-c3ccc4ncc(Cl)c(N[C@@H](c5ccccc5F)C(F)F)c4c3)cn2)CCN1 (mixture of isomers) [Example 77, 2-(4-(5-(3-chloro-4-(((S)-2,2-difluoro-1-(2-fluorophenyl)ethyl)amino)quinolin-6-yl)pyrimidin-2-yl)piperazin-2-yl) acetic acid] | < 1000
3 | Cc1ccc(C)c(Nc2c(Cl)c(N)nc3ccc(-c4cnc(NCCO)nc4)cc23)c1 [Example 70, 2-((5-(2-amino-3-chloro-4-((2,5-dimethylphenyl)amino)quinolin-6-yl)pyrimidin-2-yl)amino)ethan-1-ol] | < 1000
4 | CC(C)(O)c1ncc(-c2ccc3ncc(Cl)c(NC(c4ccccc4F)C(F)F)c3c2)cn1 (single isomer, unassigned) [Example 55, 2-(5-(3-chloro-4-((2,2-difluoro-1-(2-fluorophenyl)ethyl)amino)quinolin-6-yl)pyrimidin-2-yl)propan-2-ol] | < 1000
5 | CC(CC1CCCC1)Nc1c(Cl)cnc2ccc(-c3cnc(C(C)(C)O)nc3)cc12 (racemic) [Example 140, 2-(5-(3-chloro-4-((1-cyclopentylpropan-2-yl)amino)quinolin-6-yl)pyrimidin-2-yl)propan-2-ol] | < 1000

Continued, values first:

Row | IC50 [nM] | Compound
6 | 1000 to 10000 | C[C@@H](Nc1c(Cl)cnc2cc(F)c(-c3cnc(N4CCC(C(=O)O)C4)nc3)cc12)c1ccccc1F (mixture of isomers) [Example 282, 1-(5-(3-chloro-7-fluoro-4-(((R)-1-(2-fluorophenyl)ethyl)amino)quinolin-6-yl)pyrimidin-2-yl)pyrrolidine-3-carboxylic acid]
7 | < 1000 | Cc1nc2cc(F)c(-c3cnc(C(C)(C)O)nc3)nc2c(N[C@@H](c2cc(C#N)ccc2F)C(F)F)c1Cl [Example 499, (S)-3-(1-((3-chloro-7-fluoro-6-(2-(2-hydroxypropan-2-yl)pyrimidin-5-yl)-2-methyl-1,5-naphthyridin-4-yl)amino)-2,2-difluoroethyl)-4-fluorobenzonitrile]
8 | < 1000 | C[C@@H](Nc1c(Cl)cnc2ccc(-c3cnc(C(C)(C)O)nc3)cc12)c1cc(C(N)=O)ccc1F [Example 388, (R)-3-(1-((3-chloro-6-(2-(2-hydroxypropan-2-yl)pyrimidin-5-yl)quinolin-4-yl)amino)ethyl)-4-fluorobenzamide]
9 | < 1000 | Cc1nc2ccc(-c3cnc(C(C)(C)O)nc3)cc2c(N[C@@H](c2cc(C(C)(C)O)ccc2F)C(F)F)c1Cl [Example 418, (S)-2-(5-(3-chloro-4-((2,2-difluoro-1-(2-fluoro-5-(2-hydroxypropan-2-yl)phenyl)ethyl)amino)-2-methylquinolin-6-yl)pyrimidin-2-yl)propan-2-ol]
10 | < 1000 | C[C@@H](Nc1c(Cl)cnc2ccccc12)c1cc(-c2ccccc2C#N)ccc1F [Example 552, (R)-3′-(1-((3-chloroquinolin-4-yl)amino)ethyl)-4′-fluoro-[1,1′-biphenyl]-2-carbonitrile]
11 | 1000 to 10000 | CCC(Nc1c(Cl)cnc2ccccc12)c1ccccc1F (stereo not drawn) [Example 453, 3-chloro-N-(1-(2-fluorophenyl)propyl)quinolin-4-amine]
12 | < 1000 | Cc1nc2cc(F)c(-c3cnc(C(C)(C)O)nc3)cc2c(N[C@H](C)c2cc(C#N)ccc2F)c1Cl [Example 382, (R)-3-(1-((3-chloro-7-fluoro-6-(2-(2-hydroxypropan-2-yl)pyrimidin-5-yl)-2-methylquinolin-4-yl)amino)ethyl)-4-fluorobenzonitrile]

Reference: US10865191B2, “Heterocyclic compounds useful as modulators of TNF alpha” (BRISTOL-MYERS SQUIBB COMPANY, priority 2015, dated 2020)
